Experimental data as given in patent US4305951A, “Novel amino derivatives of 5-(2-hydroxystyryl)-isoxazole, their preparation and therapeutic formulations containing these compounds” (BASF Aktiengesellschaft, priority 1979, dated 1981).
“Also recorded” adds a separate entry of the source.

Assays:
[1] = test system: blood pressure in the carotid artery; assay: Hypotensive action on narcotized rats; format: in vivo, rat (Sprague-Dawley); details: for ED20: Rattus norvegicus, read-out: ED 20% (dose which lowers the mean carotid blood pressure by 20%)
Method: To test the hypotensive action, the compounds are administered intravenously to male Sprague-Dawley rats (weight: 230-280 g) under urethane narcosis (1.78 g/kg administered intraperitineally).
The blood pressure in the carotid artery is measured by means of a Statham transducer. The ED 20% is determined as the dose which lowers the mean carotid pressure by 20%.
^(2) Rats. Urethane narcosis. Intravenous administration. ED 20% =
dose [in mg/kg] which lowers the blood pressure by 20%.

in vivo = details: for LD50: ip
Excerpt: Intraperitoneal administration.

[2] = test system: isoproterenol-induced tachycardia; assay: β-Sympatholytic action: inhibition of isoproterenol-induced tachycardia in pithed rats; details: for ED50: Rattus norvegicus, read-out: ED 50% (dose which inhibits the isoproterenol-induced increase in pulse rate by 50%)
[3] = urethane narcosis, intravenous administration

SMILES | ED20 [1, 3] [mg/kg] | ED 20% (dose which lowers the mean carotid blood pressure by 20%) [1, 3] [mg/kg] | Q: lethal dose as multiple of the β-sympatholytically effective dose (in vivo; LD 50 mice i.p. / ED 50% pithed rats i.v.) | selectivity ratio (in vivo; mouse, in vivo) | LD50 (in vivo; mouse, in vivo) [mg/kg] | ED50 ([2]; iv) [mg/kg] | β-sympatholytic activity compared with propranolol (in words) ([2]; pithed rats, intravenous) | R.A. = relative activity (β-sympatholytic) ([2]; rat, in vivo, iv) | increase of blood pressure ([1]; 2.15 mg/kg intravenous, urethane narcosis) [%] | lowering of blood pressure ([1]; 4.64 mg/kg intravenous, urethane narcosis, average) [%] | animals that died ([1]; 10 mg/kg intravenous, urethane narcosis) | hypotensive action (in words) ([1]; acute test, intravenous) | R.A. = relative activity (β-sympatholytic) ([2]; Propranolol = 1.00, pithed rats, intravenous) | Q: lethal dose as multiple of the β-sympatholytically effective dose (in vivo; mouse, in vivo)
COc1ccc(CCNCC(O)COc2ccccc2/C=C/c2cc(C)no2)cc1OC (centres unmarked) [Example 4, 3-methyl-5-[2-[2-hydroxy-3-(2-(3,4-dimethoxyphenyl)-1-ethylamino)-propoxy]-styryl]-isoxazole] | 0.7 | 0.70 | 29,900 | 29900 | 642 | 0.0215 | corresponds approximately to that of propranolol | 0.59 | – | – | – | – | – | –
CC(C)NCC(O)COc1cccc2ccccc12 (centres unmarked) [Propranolol, propranolol] | – | – | – | – | – | – | – | – | 11 | 36 | 2 out of 6 | does not have a hypotensive effect in acute test conditions; also recorded: up to doses of 2.15 mg/kg, does not lower the blood pressure | 1.00 | –
Cc1cc(/C=C/c2ccccc2OCC(O)CNC(C)CCc2ccc(O)cc2)on1 (centres unmarked) [Example 3, 3-methyl-5-[2-[2-hydroxy-3-(3-(4-hydroxyphenyl)-1-methylpropylamino)-propoxy]-styryl]-isoxazole] | 0.49 | – | – | 24600 | 261 | 0.0106 | corresponds approximately to that of propranolol | 1.20 | – | – | – | – | – | 24,600
